Test results: patent publication US10945972B2, “Particulate materials” (Nektar Therapeutics, priority 2002, dated 2021)

Tests used:
Format in all cases: physicochemical
[1] = Inverse gas chromatography surface energy (Example 1); conditions: 303K
Text: For TBS and FHBr powders, IGC was done using a Hewlett Packard Series 6890 instrument which was specifically modified for IGC measurements by Surface Measurement Systems Ltd (Manchester, UK). The IGC method is described in detail by Tong et al. 2001. (Tong H. H. Y., B. Y. Shekunov, P. York, A. H. L. Chow, 2001. Pharm. Res. 18, 852.) Triplicate measurements in separate packed columns were made. […] The γS^D and ΔGA values were obtained at 303K.

[2] = Isothermal microcalorimetry, TAM with RH ramp (Example 8); conditions: 25° C., RH ramp 0 to 90% at 3% RH/hr; listed as TBS2
Method: A Thermal Activity Monitor (TAM, model 2277; Thermometric A B, Jrflla, Sweden) was used to measure the calorimetric heat flow (μW) vs. % RH profile of each sample. A RH-perfusion cell (Model 2255-120) accessory for the TAM was used to control RH within the sample vessel. The carrier gas, dry N2, was flowed at a constant rate (1.48 cm^3/min). All experiments were performed at 25° C. About 100 to 105 mg accurately weighed of each powder were placed in a stainless steel ampoule, attached to the RH perfusion cell, and then dried under 0% RH until a stable heat flow signal was reached (e.g., a signal within the range of −1 to +1 μW). The RH was then increased in a linear ramp from 0 to 90% over the following 30 hours (i.e., 3% RH/hr). The heat flow arising from interactions of water vapor with the solid sample was measured as a function of time. Since RH changed with time in a linear fashion, the heat flow was also known as a function of RH.
The TAM measures the total heat flow in power, P, produced from either a physical or chemical reaction. In this study, the calorimetric power is proportional to the rate of moisture sorption or desorption, crystallization, and/or other processes. Exothermic events are measured as a deflection in the positive y-axis direction. Although crystallization is an exothermic process, it can be observed as a net endothermic process. During crystallization, there is an exotherm due to crystallization and a simultaneous endotherm due to desorption of previously sorbed moisture. The TAM profile gives the resultant of these processes.

[3] = Differential scanning calorimetry (Example 8); conditions: DSC, 10° C. min^−1
Method: Prior to sample analysis, a baseline was obtained which was used as a background. […] Temperature and enthalpy were calibrated with the standard materials indium (melting point=156.6° C.) and zinc (melting point=419.5° C.). Samples (1-10) were accurately weighed into pierced, crimped aluminium pans and heated at 10° C. min^−1 over a heating range of 25-290° C. under a nitrogen purge. A chiller unit was used in conjunction with the calorimeter to attain the lower temperatures.

[4] = AEROSIZER time-of-flight of TBS (Example 8); conditions: listed as TBS 2
Method: The TBS samples were also analysed using an AEROSIZER™ (Amherst Process Instruments, Amherst, Mass., USA), provided with pulse jet disperser, the AERODISPERSER™, to introduce the powders to the instrument. The measurement range of the AEROSIZER™ is nominally from 0.2 to 200 μm of aerodynamic diameter with the standard 750 μm diameter tapered nozzle. The micronized and SEDS™ TBS samples were analyzed for 300 seconds in triplicate using normal deagglomeration conditions, feed rate (5000 particles per second) and medium shear force (0.5 psi).

[5] = Laser diffraction HELOS/RODOS of TBS (Example 8); conditions: 2 bar, listed as TBS 2
[6] = Dynamic vapor sorption (Example 8); conditions: 25° C.
Method: The moisture sorption isotherm of each powder at 25° C. was measured using a dynamic vapour sorption (DVS) instrument made by Surface Measurement Systems, UK. This instrument gravimetrically measures uptake and loss of water vapor on a substrate by means of a recording microbalance with a resolution of ±0.1 μg. In the first step of the experimental run, the sample was dried at 25° C. and 0% relative humidity (RH) for at least 600 minutes to bring the sample to near zero wt % H2O. Then, the instrument was programmed to increase the RH in steps of 5% RH from 0% to 90% RH and decrease the RH in steps of 10% RH from 90% to 0% RH. A criterion of dm/dt=0.005%/min was chosen for the system to hold at each RH step before proceeding to the next RH step. Sample masses between 30 and 100 mg were used in this study. The change in mass (%) is expressed in terms of g H2O per 100 g of dry substance.

[7] = Particle size by AeroSizer time-of-flight (Example 1); conditions: aerodynamic-equivalent volume mean diameter

**Q.** Which “γs^D (mJ/m^2)” value [1] does the source give for `CC(C)(C)NCC(O)c1cc(O)cc(O)c1` (stereo not shown) [TSB SEDS, terbutaline sulphate] here?
**A.** The value was 55.05 mJ/m^2.

**Q.** What about the “ΔGA (kJ/mol) Acetone” value ([1]; probe acetone) of the same molecule?
**A.** The value was 10.42 kJ/mol.

**Q.** What about the “ΔGA (kJ/mol) Chloroform” value ([1]; probe chloroform) of the same molecule?
**A.** Its value is 1.21 kJ/mol.

**Q.** What about the “ΔGA (kJ/mol) Dioxane” value ([1]; probe dioxane) of the same molecule?
**A.** Its value is 14.20 kJ/mol.

**Q.** What about the “ΔGA (kJ/mol) Ethyl acetate” value ([1]; probe ethyl acetate) of the same molecule?
**A.** The value was 13.76 kJ/mol.

**Q.** What about the “ΔGA (kJ/mol) Toluene” value ([1]; probe toluene) of the same molecule?
**A.** The value was 2.85 kJ/mol.

**Q.** And the “RH of thermal event in TAM profile” value [2]?
**A.** The value was “about 85 % RH”.

**Q.** And the “Enthalpy of Fusion” value ([3]; listed as TBS 2)?
**A.** Its value is 88.68 J/g.

**Q.** What about the “Enthalpy of Fusion” value ([3]; listed as TBS2) of the same molecule?
**A.** Its value is 88.68 J/g.

**Q.** And the “Aerosizer D4, 3 (μm)” value [4]?
**A.** The value was 3.44 μm.

**Q.** And the “Sympatec D4, 3 (μm)” value [5]?
**A.** Its value is 3.43 μm.

**Q.** And the “moisture uptake compared with micronised sample” value [6]?
**A.** Its value is “slightly higher moisture uptake than the micronised sample”.

**Q.** And the “VMD (μm) (Time of flight)” value [7]?
**A.** The value was 3.4 μm.
